Measured values reported in PMC10935558, “In vitro and in silico studies reveal antidiabetic properties of arylbenzofurans from the root bark of Morus mesozygia Stapf” (Frontiers in Pharmacology, 2024).
Several values for one entry are separate records, joined by “and”; a condition that tells them apart may be missing. Equal entries are not always repeated.

Legend:
[1] = molecular target: T1, human recombinant DPP4 enzyme (Homo sapiens, UniProt P27487); assay: In-vitro dipeptidyl peptidase-4 (DPP4) inhibition assay (inhibitor screening kit); type: biochemical
T1 construct: purchased abcam, Berlin, Germany
T1 sequence (P27487 whole entry): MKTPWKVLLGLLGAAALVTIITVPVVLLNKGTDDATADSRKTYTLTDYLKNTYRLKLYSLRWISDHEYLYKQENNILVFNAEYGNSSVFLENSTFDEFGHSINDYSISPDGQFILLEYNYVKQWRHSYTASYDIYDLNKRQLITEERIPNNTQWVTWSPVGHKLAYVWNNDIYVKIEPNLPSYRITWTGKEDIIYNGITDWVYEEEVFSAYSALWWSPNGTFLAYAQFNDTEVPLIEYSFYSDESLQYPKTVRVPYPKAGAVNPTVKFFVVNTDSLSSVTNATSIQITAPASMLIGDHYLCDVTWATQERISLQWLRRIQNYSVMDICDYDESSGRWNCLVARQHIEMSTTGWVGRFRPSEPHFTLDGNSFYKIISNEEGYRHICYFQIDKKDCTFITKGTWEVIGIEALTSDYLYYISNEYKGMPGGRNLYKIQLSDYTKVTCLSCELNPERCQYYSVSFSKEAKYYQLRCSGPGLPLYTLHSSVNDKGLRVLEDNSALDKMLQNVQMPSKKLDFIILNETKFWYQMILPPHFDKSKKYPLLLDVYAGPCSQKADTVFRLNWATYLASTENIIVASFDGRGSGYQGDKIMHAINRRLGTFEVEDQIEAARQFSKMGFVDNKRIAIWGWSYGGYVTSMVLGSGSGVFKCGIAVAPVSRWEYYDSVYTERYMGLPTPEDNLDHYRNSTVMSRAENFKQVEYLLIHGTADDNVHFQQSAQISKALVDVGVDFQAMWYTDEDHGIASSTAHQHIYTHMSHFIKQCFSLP
Protocol: The DPP4 inhibitor activities of the three moracins were determined by using the DPP4 inhibitor screening kit following the manufacturer’s instructions (abcam, Berlin, Germany). The established DPP4 inhibitor sitagliptin served as the positive inhibitor control, whereas assay buffer was only used as the control for DPP4 enzyme activity and was set to 100%. 30 μL of assay buffer and 10 μL human recombinant DPP4 enzyme were mixed in 96-well microtiter plates with 10 μL of 0.1- or 1-mM moracin solutions, 1 mM sitagliptin, or assay buffer. Following 10 min pre-incubation at 37°C, 50 μL of substrate solution was added to each well. The fluorescence signal (excitation wavelength of 360 nm, emission wavelength of 465 nm) was measured after 30 min incubation at 37°C (Tecan Infinite 200 micro-plate reader).
GraphPad Prism, version 5.0 was used for the statistical analysis of data, which were expressed as mean ± standard deviation. Multiple comparisons of IC50 values were carried out by using one-way ANOVA followed by Tukey’s test. For the DPP4 inhibition results, a one-way ANOVA followed by Dunnett’s post-hoc test was conducted to compare the means of treatment groups to that of the control group without inhibitor.

[2] = molecular target: Saccharomyces cerevisiae α-glucosidase; assay: In-vitro α-glucosidase inhibition assay; type: biochemical; conditions: for IC50: n = 5 independent experiments in duplicate, read-out: α-glucosidase IC50 (range)
Protocol: The α-glucosidase activity assay was carried out as described previously ([Günther et al., 2021]). Briefly, 10 mM stock solutions of the arylbenzofurans (1—3) prepared in DMSO were diluted in water. Fifteen µl of these diluted moracin compounds were mixed in 96-well microtest plates (VWR, Darmstadt, Germany) with 105 μL of 0.1 M phosphate buffer, pH 6.8 and 15 μL of a 0.5 U/mL Saccharomyces cerevisiae α-glucosidase solution (Sigma-Aldrich, Taufkirchen, Germany). The final arylbenzofurans concentrations range from 0–200 μM, while the final concentration of the extract and fractions ranges from 100–500 μg/mL. […] Following 5 min pre-incubation at 37°C, the reaction was started with 15 μL of 10 mM p-nitrophenyl-α-D-glucopyranoside (Sigma-Aldrich, Taufkirchen, Germany). After 20 min at 37 °C, 50 μL 2 M Na2CO3 stop solution was added (VWR, Darmstadt, Germany). The absorbance was measured photometrically at 405 nm (iEMS Reader MF). Five independent experiments were performed in duplicate.
(§1) GraphPad Prism, version 5.0 was used for the statistical analysis of data, which were expressed as mean ± standard deviation. Multiple comparisons of IC50 values were carried out by using one-way ANOVA followed by Tukey’s test.

[3] = molecular target: T2, porcine pancreatic α-amylase (Sus scrofa, UniProt P00690); assay: In-vitro α-amylase inhibition assay; type: biochemical; conditions: n = 2 independent experiments in duplicate; read-out: α-amylase IC50 (range)
T2 sequence (P00690 16-511): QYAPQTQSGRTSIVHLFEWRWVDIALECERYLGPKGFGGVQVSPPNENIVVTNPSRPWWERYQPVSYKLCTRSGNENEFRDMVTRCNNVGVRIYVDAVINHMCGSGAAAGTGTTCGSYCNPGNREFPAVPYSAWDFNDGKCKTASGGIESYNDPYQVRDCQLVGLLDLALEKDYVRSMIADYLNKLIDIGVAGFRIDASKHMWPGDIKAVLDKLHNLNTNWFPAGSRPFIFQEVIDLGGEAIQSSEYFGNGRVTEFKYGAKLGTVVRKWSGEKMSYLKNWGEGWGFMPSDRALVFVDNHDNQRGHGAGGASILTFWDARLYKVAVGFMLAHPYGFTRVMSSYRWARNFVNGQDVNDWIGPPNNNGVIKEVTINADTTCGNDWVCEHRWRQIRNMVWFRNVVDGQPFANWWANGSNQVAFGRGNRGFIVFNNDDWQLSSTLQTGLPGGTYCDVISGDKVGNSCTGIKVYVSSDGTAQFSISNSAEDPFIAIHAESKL
Protocol: To this end, moracins, extracts, and fraction stocks were diluted with water to give concentrations of 1,000 and 3,000 μg/mL. Of these dilutions, 15 μL were mixed with 35 µL distilled H2O and 50 μL of porcine pancreatic α-amylase (2.5 U/mL) in 20 mM sodium phosphate buffer containing 6.7 mM NaCl, pH 6.9. Following 10 min pre-incubation at 25°C, 50 μL 1% starch solution that had been cooked for 15 min in the same buffer was added to start the reaction. After 10 min at 25°C, 100 μL of a color reagent (1% 3,5-dinitrosalicylic acid and 30% sodium potassium tartrate in 0.4 M NaOH, all chemicals from Sigma-Aldrich, Taufkirchen, Germany) were added. The mixture was incubated for an additional 5 min at 100 °C and cooled to room temperature before the absorbance was measured at 540 nm by a microplate reader (iEMS Reader MF, MTX Lab Systems, Helsinki, Finland). […] The percentage inhibition of α-amylase was calculated by using the following equation: Inhibition%=AbC−AbCblank−AbS−AbSblank/AbC−AbCblank×100 AbC, absorbance of the control; AbS, absorbance of the sample.
as §1

[4] = test system: H9c2 cells; parameters: method as in Zheng et al., 2017; conditions: doxorubicin-induced myocardial toxicity in H9c2 cells; ref Zheng et al., 2017; read-out: EC50 cytoprotective effect; cited from earlier work
[5] = test system: protein tyrosine phosphatase 1B (PTP1B); parameters: method as in Cui et al., 2006; conditions: ref Cui et al., 2006; cited from earlier work
[6] = test system: chronic hepatitis C virus (HCV) cell; parameters: method as in Hyun et al., 2007; conditions: antiviral assay; ref Hyun et al., 2007; read-out: IC50 against HCV cell; cited from earlier work

inhibition at 100 µM ([1]; at 100 μM, read-out: inhibitory activity against DPP4) [%] | SMILES | DPP4 inhibition (in words) [1] | IC50 [2] | IC50 [3] [µM] | EC50 [4] [µM] | inhibitory effect against PTP1B (in words) [5] | IC50 [6] [µM] | residual peptidase (DPP4) activity compared to control ([1]; at 100 μM) [%] | fold less potent than 1 and 2 (α-glucosidase) [2] [fold]
15 | CC(C)(O)CCc1c(O)ccc2cc(-c3cc(O)cc(O)c3)oc12 [Compound 1, 5-(6-hydroxy-7-(3-hydroxy-3-methylbutyl)benzofuran-2-yl)benzene-1,3-diol] | moderate inhibitors | ~17 µM and 16.9 µM | > 300 |  |  |  |  | 
 | CC1(C)Oc2cc3oc(-c4cc(O)cc(O)c4)cc3cc2C[C@H]1O [Compound 2, Moracin P] |  | ~17 µM and 16.6 µM | > 300 | 8.8 | marginal inhibitory effect | 42.9 |  | 
 | Oc1cc(O)cc(-c2cc3ccc(O)cc3o2)c1 [Compound 3, Moracin M] | moderate inhibitors | 40.9 µM | > 300 |  |  | > 100 | 62.7 | ~2.4
